# From paper PMC6295194 (Science translational medicine, 2018)
# Structures can show the parent of a compound that is named as a salt.
# Assays:
# [1] = target: human NOP receptor (Homo sapiens, UniProt P41146); assay type: biochemical; details: percentage of stimulation of standard full agonist N/OFQ (100%)
# [2] = tested on: rhesus monkeys; experiment: Tolerance to antinociceptive effects after 4 weeks repeated administration; details: 2 injections daily for 4 weeks: morphine 1.8 mg/kg, AT-121 0.03 mg/kg
# [3] = tested on: rhesus monkeys; experiment: Warm water tail-withdrawal assay; assay type: in vivo, rhesus monkeys (Macaca mulatta); details: Macaca mulatta, sc, read-out: antinociception ED50
# [4] = tested on: rhesus monkeys; experiment: Physiological responses by radio-telemetry; assay type: in vivo, rhesus monkeys (Macaca mulatta); details: 1 mg/kg i.m., single monkey
# [5] = tested on: rhesus monkeys; set-up: species or system rhesus monkeys (Macaca mulatta); details: rhesus monkey, in vivo
# Sequence of human NOP receptor (P41146 whole entry): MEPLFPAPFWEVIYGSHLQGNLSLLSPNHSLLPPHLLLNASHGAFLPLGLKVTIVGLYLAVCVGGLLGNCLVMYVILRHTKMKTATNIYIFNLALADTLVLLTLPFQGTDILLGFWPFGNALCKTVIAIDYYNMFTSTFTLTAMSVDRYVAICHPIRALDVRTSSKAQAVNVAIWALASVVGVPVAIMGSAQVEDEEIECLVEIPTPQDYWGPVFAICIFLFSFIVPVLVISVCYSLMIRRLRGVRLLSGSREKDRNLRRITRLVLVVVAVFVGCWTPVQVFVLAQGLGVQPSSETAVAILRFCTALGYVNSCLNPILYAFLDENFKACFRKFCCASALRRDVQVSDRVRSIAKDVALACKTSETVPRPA
compound,measurement,setting,value
"CN1CC[C@]23c4c5ccc(O)c4O[C@H]2[C@@H](O)C=C[C@H]3[C@H]1C5 [Morphine, Morphine sulfate]",[35S]GTPγS NOP % Stim,[1],5.4 ± 1%
same,tolerance to antinociceptive effects,[2],decrease in antinociceptive effects
same,ED50,[3],1 mg/kg
"CC(=O)Oc1ccc2c3c1O[C@H]1[C@@H](OC(C)=O)C=C[C@H]4[C@@H](C2)N(C)CC[C@@]341 [heroin, diamorphine HCl]",respiratory depression,[4],caused respiratory depression
same,time to respiratory depression,[4],< 20 min
"O=C1CC[C@@]2(O)[C@H]3Cc4ccc(O)c5c4[C@@]2(CCN3CC2CC2)[C@H]1O5 [naltrexone, naltrexone HCl]",effect of pretreatment on reinforcing effects of oxycodone,[5],effectively attenuated the reinforcing effects of oxycodone
buprenorphine HCl,effect of pretreatment on reinforcing effects of oxycodone,[5],effectively attenuated the reinforcing effects of oxycodone
